Test system: normal human lung fibroblasts
Test: Ribosomal profiling: translational efficiency in TGFβ-treated fibroblasts
Type: cell-based
Settings: TGFβ-treated fibroblasts
Description: Ribosomal profiling allows for measurement of changes in transcription and translation on a genome-wide basis accompanying TGFβ-dependent transformation of fibroblasts to myofibroblasts. Ribosomal profiles of the TGFβ-treated fibroblasts from Example 1 (about 6×10^6 cells/10 cm plate) were prepared and analyzed for changes in translational efficiencies with respect to potential disease-associated cellular changes accompanying this TGFβ-induced transformation.
Briefly, cells were washed with cold PBS supplemented with cycloheximide and lysed with 1× mammalian cell lysis buffer for 10 minutes on ice. Lysates were clarified by centrifugation for 10 minutes at 14,000 rpm and supernatants were collected. Cell lysates were processed to generate ribosomal protected fragments and total mRNA according to the instructions included with the ARTseq Ribosome Profiling Kit (Illumina, San Diego, Calif.). Sequencing of total RNA (RNA) and of ribosome-protected fragments of RNA (RPF) was carried out using RNA-Seq methodology according to the manufacturer's instructions (Illumina). To analyze the ribosomal profiles, RNA-Seq reads were processed with tools from the FASTX-Toolkit (fastq_quality_trimmer, fastx_clipper and fastx_trimmer). Unprocessed and processed reads were evaluated for a variety of quality measures using FastQC, and processed reads were mapped to the human genome using TopHat (see, e.g., Trapnell et al., Bioinformatics 25:1105, 2009). Gene-by-gene assessment of the number of fragments strictly and uniquely mapping to the coding region of each gene was conducted using HTSeq-count, a component of the HTSeq package. […] Genes with low counts in either RPF or RNA were excluded from differential analyses. Pathway and network analyses of differential data were conducted using Ingenuity Pathway Analysis (IPA).

In the case of Cc1ccc(=O)n(-c2ccccc2)c1 [pirfenidone, 5-methyl-1-phenylpyridin-2-one], the “effect in renormalizing the translational profile of the gene” value (gene RPS6KA5 (ENSG00000100784)) is reported as “− (− = <0.9)”, the “effect in renormalizing the translational profile of the gene” value (gene RPS7 (ENSG00000171863)) is reported as “− (− = <0.9)” and the “effect in renormalizing the translational profile of the gene” value (gene RPS8 (ENSG00000142937)) is reported as “+ (+ = 0.9 to 1.5)”. The “effect in renormalizing the translational profile of the gene” value (gene RPS9 (ENSG00000170889)) was “+ (+ = 0.9 to 1.5)”, the “effect in renormalizing the translational profile of the gene” value (gene RPS10 (ENSG00000124614)) was “+ (+ = 0.9 to 1.5)” and the “effect in renormalizing the translational profile of the gene” value (gene RPS11 (ENSG00000142534)) was “− (− = <0.9)”. For the same molecule, the “effect in renormalizing the translational profile of the gene” value (gene RPS12 (ENSG00000112306)) was “− (− = <0.9)”, the “effect in renormalizing the translational profile of the gene” value (gene RPS13 (ENSG00000110700)) was “− (− = <0.9)” and the “effect in renormalizing the translational profile of the gene” value (gene RPS14 (ENSG00000164587)) was “− (− = <0.9)”. For the same molecule, the “effect in renormalizing the translational profile of the gene” value (gene RPS15 (ENSG00000115268)) was “+ (+ = 0.9 to 1.5)”, the “effect in renormalizing the translational profile of the gene” value (gene RPS15A (ENSG00000134419)) was “+ (+ = 0.9 to 1.5)” and the “effect in renormalizing the translational profile of the gene” value (gene RPS16 (ENSG00000105193)) was “+ (+ = 0.9 to 1.5)”. The “effect in renormalizing the translational profile of the gene” value (gene RPS18 (ENSG00000231500)) was “+ (+ = 0.9 to 1.5)”, the “effect in renormalizing the translational profile of the gene” value (gene RPS19 (ENSG00000105372)) was “+ (+ = 0.9 to 1.5)” and the “effect in renormalizing the translational profile of the gene” value (gene RPS20 (ENSG00000008988)) was “− (− = <0.9)”. The “effect in renormalizing the translational profile of the gene” value (gene RPS21 (ENSG00000171858)) was “− (− = <0.9)”, the “effect in renormalizing the translational profile of the gene” value (gene RPS23 (ENSG00000186468)) was “− (− = <0.9)” and the “effect in renormalizing the translational profile of the gene” value (gene RPS24 (ENSG00000138326)) was “− (− = <0.9)”. The “effect in renormalizing the translational profile of the gene” value (gene RPS25 (ENSG00000118181)) was “− (− = <0.9)”, the “effect in renormalizing the translational profile of the gene” value (gene RPS26 (ENSG00000197728)) was “− (− = <0.9)” and the “effect in renormalizing the translational profile of the gene” value (gene RPS27 (ENSG00000177954)) was “+ (+ = 0.9 to 1.5)”. The “effect in renormalizing the translational profile of the gene” value (gene RPS27A (ENSG00000143947)) was “− (− = <0.9)”, the “effect in renormalizing the translational profile of the gene” value (gene RPS28 (ENSG00000233927)) was “+ (+ = 0.9 to 1.5)” and the “effect in renormalizing the translational profile of the gene” value (gene RPS29 (ENSG00000213741)) was “+ (+ = 0.9 to 1.5)”. The “effect in renormalizing the translational profile of the gene” value (gene RPSA (ENSG00000168028)) was “− (− = <0.9)”, the “effect in renormalizing the translational profile of the gene” value (gene RTN2 (ENSG00000125744)) was “− (− = <0.9)” and the “effect in renormalizing the translational profile of the gene” value (gene SEMA3A (ENSG00000075213)) was “− (− = <0.9)”. The “effect in renormalizing the translational profile of the gene” value (gene SGIP1 (ENSG00000118473)) was “− (− = <0.9)”, the “effect in renormalizing the translational profile of the gene” value (gene SH3BGR (ENSG00000185437)) was “− (− = <0.9)” and the “effect in renormalizing the translational profile of the gene” value (gene SHC3 (ENSG00000148082)) was “− (− = <0.9)”. For the same molecule, the “effect in renormalizing the translational profile of the gene” value (gene SLC2A12 (ENSG00000146411)) was “− (− = <0.9)”, the “effect in renormalizing the translational profile of the gene” value (gene SLC7A7 (ENSG00000155465)) was “− (− = <0.9)” and the “effect in renormalizing the translational profile of the gene” value (gene SLC15A3 (ENSG00000110446)) was “− (− = <0.9)”. The “effect in renormalizing the translational profile of the gene” value (gene SLC25A6 (ENSG00000169100)) was “+ (+ = 0.9 to 1.5)”, the “effect in renormalizing the translational profile of the gene” value (gene SLC40A1 (ENSG00000138449)) was “++ (++ = 1.5 to 2.0)” and the “effect in renormalizing the translational profile of the gene” value (gene SMO (ENSG00000128602)) was “− (− = <0.9)”. The “effect in renormalizing the translational profile of the gene” value (gene SNRPA (ENSG00000077312)) was “− (− = <0.9)”, the “effect in renormalizing the translational profile of the gene” value (gene SOX5 (ENSG00000134532)) was “− (− = <0.9)” and the “effect in renormalizing the translational profile of the gene” value (gene SOX6 (ENSG00000110693)) was “+ (+ = 0.9 to 1.5)”. For the same molecule, the “effect in renormalizing the translational profile of the gene” value (gene SPATA6 (ENSG00000132122)) was “+ (+ = 0.9 to 1.5)”, the “effect in renormalizing the translational profile of the gene” value (gene STAMBPL1 (ENSG00000138134)) was “+ (+ = 0.9 to 1.5)” and the “effect in renormalizing the translational profile of the gene” value (gene STS (ENSG00000101846)) was “+ (+ = 0.9 to 1.5)”. The “effect in renormalizing the translational profile of the gene” value (gene SYNE2 (ENSG00000054654)) was “− (− = <0.9)”, the “effect in renormalizing the translational profile of the gene” value (gene TAF1D (ENSG00000166012)) was “+ (+ = 0.9 to 1.5)” and the “effect in renormalizing the translational profile of the gene” value (gene TDG (ENSG00000139372)) was “− (− = <0.9)”. For the same molecule, the “effect in renormalizing the translational profile of the gene” value (gene TEN1 (ENSG00000257949)) was “− (− = <0.9)”, the “effect in renormalizing the translational profile of the gene” value (gene TET2 (ENSG00000168769)) was “− (− = <0.9)” and the “effect in renormalizing the translational profile of the gene” value (gene TET3 (ENSG00000187605)) was “− (− = <0.9)”. The “effect in renormalizing the translational profile of the gene” value (gene TGFBI (ENSG00000120708)) was “− (− = <0.9)”, the “effect in renormalizing the translational profile of the gene” value (gene THBS3 (ENSG00000169231)) was “+ (+ = 0.9 to 1.5)” and the “effect in renormalizing the translational profile of the gene” value (gene THG1L (ENSG00000113272)) was “− (− = <0.9)”. For the same molecule, the “effect in renormalizing the translational profile of the gene” value (gene TIMM9 (ENSG00000100575)) was “− (− = <0.9)”, the “effect in renormalizing the translational profile of the gene” value (gene TKT (ENSG00000163931)) was “+ (+ = 0.9 to 1.5)” and the “effect in renormalizing the translational profile of the gene” value (gene TMTC1 (ENSG00000133687)) was “− (− = <0.9)”. For the same molecule, the “effect in renormalizing the translational profile of the gene” value (gene TOMM7 (ENSG00000196683)) was “− (− = <0.9)”, the “effect in renormalizing the translational profile of the gene” value (gene TOP2A (ENSG00000131747)) was “− (− = <0.9)” and the “effect in renormalizing the translational profile of the gene” value (gene TPGS1 (ENSG00000141933)) was “− (− = <0.9)”. For the same molecule, the “effect in renormalizing the translational profile of the gene” value (gene TPM2 (ENSG00000198467)) was “− (− = <0.9)”, the “effect in renormalizing the translational profile of the gene” value (gene TPT1 (ENSG00000133112)) was “− (− = <0.9)” and the “effect in renormalizing the translational profile of the gene” value (gene TRERF1 (ENSG00000124496)) was “− (− = <0.9)”. The “effect in renormalizing the translational profile of the gene” value (gene UBA52 (ENSG00000221983)) was “− (− = <0.9)”, the “effect in renormalizing the translational profile of the gene” value (gene UQCRB (ENSG00000156467)) was “− (− = <0.9)” and the “effect in renormalizing the translational profile of the gene” value (gene UTRN (ENSG00000152818)) was “− (− = <0.9)”. The “effect in renormalizing the translational profile of the gene” value (gene VIM (ENSG00000026025)) was “− (− = <0.9)”, the “effect in renormalizing the translational profile of the gene” value (gene ZNF581 (ENSG00000171425)) was “− (− = <0.9)” and the “effect in renormalizing the translational profile of the gene” value (gene ZNF608 (ENSG00000168916)) was “− (− = <0.9)”.

Source: US9993494B2, “Compositions and methods for treating fibrotic disease” (eFFECTOR Therapeutics, Inc., priority 2014, dated 2018)
